Test results taken from US10548906B2, “Methods of promoting hepatic regeneration” (Intercept Pharmaceuticals, Inc., priority 2015, dated 2020).

Experiments:
Adult female rabbits = assay: PVE in rabbits: CLV and bile salts (Example 5a); type: in vivo, rabbit; conditions: day 3 after PVE
Protocol: (§1) Adult female rabbits received vehicle or the FXR agonist obeticholic acid (OCA; 10 mg/kg, daily oral gavage) for 7 days prior to, and after embolization (day 0) of the cranial liver lobes. Effectiveness of PVE was confirmed by portography, and caudal liver volume (CLV) was analyzed by CT-volumetric analysis at days −7, −1, +3 and +7. Rabbits were sacrificed at day +3 and +7 (n=5-6 per group).

FXR = assay: Bile salt homeostasis/proliferation related transcript levels in liver after PVE (Example 5a); type: in vivo, rabbit
Protocol: as §1

CC[C@H]1[C@@H](O)[C@@H]2[C@H](CC[C@]3(C)[C@@H]([C@H](C)CCC(=O)O)CC[C@@H]23)[C@@]2(C)CC[C@@H](O)C[C@@H]12 [Compound 1, 3α,7α-dihydroxy-6α-ethyl-5β-cholanic acid]
increase in CLV (Adult female rabbits): 59.3±19.2% | expression of Cdc25b vs controls (FXR; atrophic liver segments): +1.1 fold | expression of Cdc25b vs controls (FXR; hypertrophic liver segments): +1.6 fold | expression of Cyp7a1 vs controls (FXR; hypertrophied segments, day +3): −7.1 fold | expression of Slc51b vs controls (FXR; hypertrophied segments, day +3): +6.5 fold
